Measured values: ChEMBL document CHEMBL1201862, “PubChem BioAssay data set” (2004)
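Briefly, cells in 96-well plates were exposed to five compound concentrations for 48 h, and endpoints were estimated by linear interpolation. At the GI50, growth is halved.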 Calls of active or inactive are those of the source. No stated cut-off is given here; in the data, active = GI50 up to about 1.1 µM and inactive = higher.

What was measured:
Test in all cases: inhibition of tumour cell growth, NCI panel, 48 h
[1] = system: DU-145
[2] = system: KM12
[3] = system: K562
[4] = system: OVCAR-4
[5] = system: M14
[6] = system: EKVX
[7] = system: SR
[8] = system: OVCAR-8
[9] = system: NCI-H23
[10] = system: SF-295
[11] = system: HCT-15
[12] = system: HOP-92
[13] = system: PC-3
[14] = system: NCI-H460
[15] = system: SK-MEL-5
[16] = system: HCT-116
[17] = system: MDA-MB-435
[18] = system: RXF 393
[19] = system: HCC 2998
[20] = system: SNB-75

| SMILES | GI50 [1] | GI50 [2] | GI50 [3] | GI50 [4] | GI50 [5] | GI50 [6] | GI50 [7] | GI50 [8] | GI50 [9] | GI50 [10] | GI50 [11] | GI50 [12] | GI50 [13] | GI50 [14] | GI50 [15] | GI50 [16] | GI50 [17] | GI50 [18] | GI50 [19] | GI50 [20] |
| --- | --- | --- | --- | --- | --- | --- | --- | --- | --- | --- | --- | --- | --- | --- | --- | --- | --- | --- | --- | --- |
| Fc1cccc(Cl)c1/C=N\N=C1c2ccccc2-c2ccccc21 | > 100 µM (inactive) | 40.7 µM (inactive) | > 100 µM (inactive) | 49.4 µM (inactive) | > 100 µM (inactive) | > 100 µM (inactive) | 51.2 µM (inactive) | 79.8 µM (inactive) | > 100 µM (inactive) | 61.7 µM (inactive) | 75.2 µM | > 100 µM (inactive) | 97.9 µM (inactive) | 79.8 µM (inactive) | > 100 µM (inactive) | > 100 µM (inactive) | 36 µM (inactive) | > 100 µM (inactive) |  |  |
| CC[C@@]12CCCN3CC[C@]4(c5cccc(OC)c5N(C(C)=O)[C@@H]4CC1)[C@H]32 [ASPIDOSPERMINE] | > 100 µM (inactive) | 84.5 µM (inactive) |  | 92.9 µM (inactive) | 36.5 µM (inactive) | 44.2 µM (inactive) | 27.7 µM (inactive) | > 100 µM (inactive) | > 100 µM (inactive) | 46.6 µM (inactive) | 79.3 µM | 35.6 µM (inactive) | 43 µM (inactive) | 54.3 µM (inactive) | 44.3 µM (inactive) | 44.9 µM (inactive) | 38.3 µM (inactive) | 60.4 µM (inactive) | 23 µM (inactive) |  |
| CC[C@H](C)[C@H]1NC(=O)[C@@H](NC(=O)[C@@H](CC(C)C)N(C)C(=O)C2CCCN2C(=O)[C@H](C)O)[C@@H](C)OC(=O)[C@H](Cc2ccc(OC)cc2)N(C)C(=O)[C@@H]2CCCN2C(=O)[C@H](CCCCNC(=O)OCc2ccccc2)NC(=O)[C@H](C)C(=O)[C@H](C(C)C)OC(=O)C[C@@H]1O (stereo partly drawn) | 9.84 µM (inactive) | 4.73 µM (inactive) | 7.29 µM (inactive) | 5.47 µM (inactive) | 4.13 µM (inactive) | 5.38 µM (inactive) | 12.2 µM (inactive) | 19.7 µM (inactive) | 10.7 µM (inactive) | 8.63 µM (inactive) | > 25 µM | 3.49 µM (inactive) | 3.93 µM (inactive) | 6.4 µM (inactive) | 4.41 µM (inactive) | 3.28 µM (inactive) | 5.86 µM (inactive) | > 25 µM (inactive) | 2.73 µM (inactive) |  |
| C[n+]1c(-c2ccc(/C=N\N3CCN(/N=C/c4ccc(-c5cn6ccsc6[n+]5C)cc4)CC3)cc2)cn2ccsc21 | 23.3 µM (inactive) | 25.8 µM (inactive) | 11.8 µM (inactive) | 28.4 µM (inactive) | 44.8 µM (inactive) | 43.5 µM (inactive) | 41.4 µM (inactive) | 41.7 µM (inactive) | 30.1 µM (inactive) | 28.6 µM (inactive) | 34.5 µM | 42.3 µM (inactive) | > 100 µM (inactive) | 26.7 µM (inactive) | 22.8 µM (inactive) | 33.3 µM (inactive) | 26.7 µM (inactive) | 27.3 µM (inactive) |  | 26.9 µM (inactive) |
| CC(=O)Nc1ccc(-c2cc(C(=O)O)c3cc4ccccc4cc3n2)cc1 | > 100 µM (inactive) | > 100 µM (inactive) | > 100 µM (inactive) | > 100 µM (inactive) | > 100 µM (inactive) | > 100 µM (inactive) | > 100 µM (inactive) | > 100 µM (inactive) | > 100 µM (inactive) | > 100 µM (inactive) | > 100 µM | > 100 µM (inactive) | > 100 µM (inactive) | > 100 µM (inactive) | > 100 µM (inactive) | > 100 µM (inactive) | > 100 µM (inactive) | > 100 µM (inactive) |  | > 100 µM (inactive) |
| N#C/C(=C/n1c(=S)[nH]c2ccc([N+](=O)[O-])cc21)C(N)=O | > 100 µM (inactive) | > 100 µM (inactive) |  | > 100 µM (inactive) | > 100 µM (inactive) | 22.2 µM (inactive) | > 100 µM (inactive) | > 100 µM (inactive) | > 100 µM (inactive) | > 100 µM (inactive) | > 100 µM | > 100 µM (inactive) | > 100 µM (inactive) | > 100 µM (inactive) | > 100 µM (inactive) | > 100 µM (inactive) | > 100 µM (inactive) | > 100 µM (inactive) |  | 19.7 µM (inactive) |
| COC(=O)c1ccccc1Nc1nc(-c2cccs2)nc2cc(OC)c(OC)cc12 | 92.3 µM (inactive) | 71.8 µM (inactive) | > 100 µM (inactive) | 40.6 µM (inactive) | > 100 µM (inactive) | 37.9 µM (inactive) | 18 µM (inactive) | 15.2 µM (inactive) | 17.4 µM (inactive) | 29.2 µM (inactive) | 90.2 µM | 44.5 µM (inactive) | 52.2 µM (inactive) | 58.6 µM (inactive) | > 100 µM (inactive) | 37.5 µM (inactive) | > 100 µM (inactive) | 68.1 µM (inactive) |  | 75.3 µM (inactive) |
| O=CC(O)C(O)C(O)C(O)C(=O)NCCCCCCCCCCCCNC(=O)C(O)C(O)C(O)C(O)C=O (stereo not drawn) | > 100 µM (inactive) | > 100 µM (inactive) |  | > 100 µM (inactive) | > 100 µM (inactive) | > 100 µM (inactive) | > 100 µM (inactive) | > 100 µM (inactive) | > 100 µM (inactive) | > 100 µM (inactive) | > 100 µM | > 100 µM (inactive) | > 100 µM (inactive) | > 100 µM (inactive) | > 100 µM (inactive) | > 100 µM (inactive) | > 100 µM (inactive) | > 100 µM (inactive) | > 100 µM (inactive) |  |
| CC(=O)c1cn(-c2ccc(Cl)cc2)c(=O)c2c(N)n[nH]c12 | > 100 µM (inactive) | > 100 µM (inactive) | 22.3 µM (inactive) | > 100 µM (inactive) |  | > 100 µM (inactive) | > 100 µM (inactive) | > 100 µM (inactive) | > 100 µM (inactive) | > 100 µM (inactive) | > 100 µM |  | > 100 µM (inactive) | > 100 µM (inactive) | > 100 µM (inactive) | > 100 µM (inactive) | > 100 µM (inactive) | > 100 µM (inactive) | > 100 µM (inactive) | > 100 µM (inactive) |
| CCCCCCC(N)(CCCCCC)C(=O)Nn1c(C)ccc1C | > 100 µM (inactive) | 15.5 µM (inactive) | > 100 µM (inactive) | > 100 µM (inactive) | > 100 µM (inactive) | 12 µM (inactive) | 29.9 µM (inactive) | 50 µM (inactive) | 15.5 µM (inactive) | > 100 µM (inactive) | 24 µM |  | 5.14 µM (inactive) | 31.8 µM (inactive) | 21.9 µM (inactive) | 10.9 µM (inactive) | > 100 µM (inactive) | 25.7 µM (inactive) | > 100 µM (inactive) | 29.4 µM (inactive) |
| COc1cccc2c1OC(c1ccc(Cl)cc1)C([N+](=O)[O-])=C2 (stereo not drawn) | 3.68 µM (inactive) | 2.08 µM (inactive) | 0.411 µM (active) | 2.17 µM (inactive) | 1.11 µM (active) | 11.7 µM (inactive) | 0.538 µM (active) | 1.93 µM (inactive) | 3.77 µM (inactive) | 3.1 µM (inactive) | 1.81 µM |  | 1.66 µM (inactive) | 1.58 µM (inactive) | 1.53 µM (inactive) | 1.35 µM (inactive) | 2.42 µM (inactive) | 1.64 µM (inactive) |  |  |
| CC1(C)C2CCC1C(=O)C(C=O)C2 (stereo not drawn) | > 100 µM (inactive) | > 100 µM (inactive) | > 100 µM (inactive) |  | > 100 µM (inactive) |  | 3.16 µM (inactive) | > 100 µM (inactive) | > 100 µM (inactive) | > 100 µM (inactive) | 49.5 µM |  | > 100 µM (inactive) | > 100 µM (inactive) | > 100 µM (inactive) | > 100 µM (inactive) | > 100 µM (inactive) | > 100 µM (inactive) | > 100 µM (inactive) | 79.1 µM (inactive) |
| [N-]=[N+]=CC(=O)OC1CCc2ccccc21 (stereo not drawn) | 12.8 µM (inactive) |  | > 100 µM (inactive) | > 100 µM (inactive) |  | > 100 µM (inactive) | > 100 µM (inactive) |  | 82.8 µM (inactive) | 40.8 µM (inactive) | > 100 µM | 44.6 µM (inactive) | > 100 µM (inactive) | 47.8 µM (inactive) | 85.1 µM (inactive) | > 100 µM (inactive) | > 100 µM (inactive) | 60.3 µM (inactive) | > 100 µM (inactive) |  |
| O=[N+]([O-])C(=C(Nc1cccc2cccnc12)Nc1cccc2cccnc12)C(Cl)=C(Cl)Cl | 58.3 µM (inactive) | 45.2 µM (inactive) | 27.9 µM (inactive) | 34 µM (inactive) | > 100 µM (inactive) | > 100 µM (inactive) | > 100 µM (inactive) | 33.2 µM (inactive) | 31.6 µM (inactive) | 43 µM (inactive) | 31.2 µM |  | > 76 µM (inactive) | 33.4 µM (inactive) | 4.97 µM (inactive) | 45 µM (inactive) | 36.6 µM (inactive) | 30 µM (inactive) | > 61.7 µM (inactive) | > 100 µM (inactive) |
| CS(=O)(=O)N(CC(=O)O)Cc1ccccc1 | > 100 µM (inactive) | > 100 µM (inactive) | > 100 µM (inactive) | > 100 µM (inactive) | > 100 µM (inactive) | > 100 µM (inactive) | > 100 µM (inactive) | > 100 µM (inactive) | > 100 µM (inactive) | > 100 µM (inactive) | > 100 µM | > 100 µM (inactive) | > 100 µM (inactive) | > 100 µM (inactive) | > 100 µM (inactive) | > 100 µM (inactive) | > 100 µM (inactive) | > 100 µM (inactive) |  | > 100 µM (inactive) |
